{"source": "paper PMC12217461", "about": "(Antimicrobial Agents and Chemotherapy, 2025)", "key": {"[1]": {"system": "IMP-14 D227Y", "test": "IC50, inhibition of cephalothin hydrolysis", "assay_type": "biochemical", "details": "crude enzyme extract, 100 µM cephalothin, 3 min pre-incubation; read-out: IC50 against IMP-14 D227Y", "method": "(§1) Genes encoding different acquired IMP-like enzymes suspected to be resistant to XER (blaIMP-6, blaIMP-7, blaIMP-10, blaIMP-14, blaIMP-26, blaIMP-34, and blaIMP-59) were amplified by PCR, and corresponding amplicons were cloned into plasmid pUCP24 and expressed in E. coli TOP10. The following recombinant E. coli strains producing IMP-1, IMP-4, IMP-19, and NDM-1 were used from a previous study ([16]). Therefore, site-directed mutagenesis was performed using the Q5 Site-Directed Mutagenesis kit (ref. E0554S, New England Biolabs, Ipswich, MA) to obtain mutants of NDM-1 and IMP-14 in order to test the impact of specific amino-acid substitutions with respect to XER sensitivity. For that purpose, a list of primers was designed and provided as Table S1. […] The nomenclature used in this study was according to the BBL sequence numbering ([52]).\n(§2) Cultures of E. coli TOP10 harboring recombinant plasmids and therefore producing the different IMP-like tested were grown overnight at 37°C in 50 mL of lysogeny broth (LB) with gentamicin (50 µg/mL). The bacterial suspension was pelleted, resuspended in 10 mL of 100 mM phosphate buffer (pH 7) supplemented with ZnSO4 (5 µM) for E. coli TOP10 harboring IMPs and then sonicated using a Vibra Cell 75186 sonicator (Thermo Fisher Scientific), followed by centrifugation for 1 h at 11,000 × g and 4°C. The presence of the β-lactamase was monitored using nitrocefin (200 µM). Kinetic measurements were performed at room temperature in 100 mM sodium phosphate (pH 7.0) supplemented with ZnSO4 (5 µM) for IMPs using a UV/visible ULTROSPEC 2100 pro spectrophotometer (Amersham Biosciences, Buckinghamshire, UK). The wavelength and absorption coefficient of cephalothin (262 nm/Ʌ ɛ = −7960 M^−1.cm^−1) were used for all IMPs, and IC50 was determined in triplicate for TAN and XER. Various concentrations of these inhibitors were pre-incubated with the crude extract of the enzyme for 3 min at room temperature to determine the concentrations that reduced the hydrolysis rate of 100 µM of cephalothin by 50% ([54])."}, "[2]": {"system": "IMP-14 H174N", "test": "IC50, inhibition of cephalothin hydrolysis", "assay_type": "biochemical", "details": "crude enzyme extract, 100 µM cephalothin, 3 min pre-incubation; read-out: IC50 against IMP-14 H174N", "method": "as §1, §2"}, "[3]": {"system": "IMP-14 N178S", "test": "IC50, inhibition of cephalothin hydrolysis", "assay_type": "biochemical", "details": "crude enzyme extract, 100 µM cephalothin, 3 min pre-incubation; read-out: IC50 against IMP-14 N178S", "method": "as §1, §2"}, "[4]": {"system": "IMP-14 N233Y", "test": "IC50, inhibition of cephalothin hydrolysis", "assay_type": "biochemical", "details": "crude enzyme extract, 100 µM cephalothin, 3 min pre-incubation; read-out: IC50 against IMP-14 N233Y", "method": "as §1, §2"}, "[5]": {"system": "IMP-14 S65G", "test": "IC50, inhibition of cephalothin hydrolysis", "assay_type": "biochemical", "details": "crude enzyme extract, 100 µM cephalothin, 3 min pre-incubation; read-out: IC50 against IMP-14 S65G", "method": "as §1, §2"}, "[6]": {"system": "IMP-14", "test": "IC50, inhibition of cephalothin hydrolysis", "assay_type": "biochemical", "details": "crude enzyme extract, 100 µM cephalothin, 3 min pre-incubation; read-out: IC50 against IMP-14", "method": "as §2"}, "[7]": {"target": "IMP-26 (Klebsiella pneumoniae, UniProt D0V558)", "test": "IC50, inhibition of cephalothin hydrolysis", "assay_type": "biochemical", "method": "as §2"}, "[8]": {"target": "IMP-59 (Escherichia coli, UniProt A0A172MB70)", "test": "IC50, inhibition of cephalothin hydrolysis", "assay_type": "biochemical", "method": "as §2"}, "[9]": {"target": "T1, IMP-6 (Serratia marcescens, UniProt P52699, S214G)", "T1 construct": "made in house; host or cells: E. coli TOP10, plasmid pUCP24 (crude extract)", "test": "IC50, inhibition of cephalothin hydrolysis", "assay_type": "biochemical", "details": "crude enzyme extract, 100 µM cephalothin, 3 min pre-incubation; read-out: IC50 against IMP-6", "method": "as §2"}, "[10]": {"system": "NDM-1", "details": "crude enzyme extract, 100 µM cephalothin, 3 min pre-incubation; read-out: IC50 against NDM-1; cited from earlier work"}, "[11]": {"system": "IMP-1", "details": "crude enzyme extract, 100 µM cephalothin, 3 min pre-incubation; read-out: IC50 against IMP-1; cited from earlier work"}, "[12]": {"system": "IMP-10", "details": "crude enzyme extract, 100 µM cephalothin, 3 min pre-incubation; read-out: IC50 against IMP-10; cited from earlier work"}, "[13]": {"system": "IMP-19", "details": "crude enzyme extract, 100 µM cephalothin, 3 min pre-incubation; read-out: IC50 against IMP-19; cited from earlier work"}, "[14]": {"system": "IMP-4", "details": "crude enzyme extract, 100 µM cephalothin, 3 min pre-incubation; read-out: IC50 against IMP-4; cited from earlier work"}}, "note": "Where two headings read alike, the source gives them in different places."}
{"smiles": "O=C(O)c1c(F)ccc2c1OB(O)[C@@H]1C[C@H]21", "note": "[xeruborbactam]", "values": [{"measurement": "IC50", "setting": "[1]", "value": 250, "unit": "µM"}, {"measurement": "IC50", "setting": "[2]", "value": 182, "unit": "µM"}, {"measurement": "IC50", "setting": "[3]", "value": 180, "unit": "µM"}, {"measurement": "IC50", "setting": "[4]", "value": 210, "unit": "µM"}, {"measurement": "IC50", "setting": "[5]", "value": 140, "unit": "µM"}, {"measurement": "IC50", "setting": "[6]", "value": "> 250", "unit": "µM"}, {"measurement": "IC50", "setting": "[7]", "value": 77, "unit": "µM"}, {"measurement": "IC50", "setting": "[8]", "value": 10.3, "unit": "µM"}, {"measurement": "IC50", "setting": "[9]", "value": 180, "unit": "µM"}, {"measurement": "IC50", "setting": "[10]", "value": "[…]"}, {"measurement": "IC50", "setting": "[11]", "value": 2.7, "unit": "µM"}, {"measurement": "IC50", "setting": "[12]", "value": 73, "unit": "µM"}, {"measurement": "IC50", "setting": "[13]", "value": 7.5, "unit": "µM"}, {"measurement": "IC50", "setting": "[14]", "value": 14.7, "unit": "µM"}]}
{"smiles": "NCCN[C@H]1CC[C@H](CC(=O)N[C@H]2Cc3cccc(C(=O)O)c3OB2O)CC1", "note": "[taniborbactam]", "values": [{"measurement": "IC50", "setting": "[1]", "value": 204, "unit": "µM"}, {"measurement": "IC50", "setting": "[2]", "value": "> 250", "unit": "µM"}, {"measurement": "IC50", "setting": "[3]", "value": "> 250", "unit": "µM"}, {"measurement": "IC50", "setting": "[4]", "value": "> 250", "unit": "µM"}, {"measurement": "IC50", "setting": "[5]", "value": "> 250", "unit": "µM"}, {"measurement": "IC50", "setting": "[6]", "value": "> 250", "unit": "µM"}, {"measurement": "IC50", "setting": "[7]; crude enzyme extract, 100 µM cephalothin, 3 min pre-incubation, read-out: IC50 against IMP-26", "value": "> 250", "unit": "µM"}, {"measurement": "IC50", "setting": "[8]; crude enzyme extract, 100 µM cephalothin, 3 min pre-incubation, read-out: IC50 against IMP-59", "value": 7, "unit": "µM"}, {"measurement": "IC50", "setting": "[9]", "value": "> 250", "unit": "µM"}, {"measurement": "IC50", "setting": "[10]", "value": "[…]"}, {"measurement": "IC50", "setting": "[11]", "value": "> 250", "unit": "µM"}, {"measurement": "IC50", "setting": "[12]", "value": "> 250", "unit": "µM"}, {"measurement": "IC50", "setting": "[13]", "value": "> 250", "unit": "µM"}, {"measurement": "IC50", "setting": "[14]", "value": "> 250", "unit": "µM"}]}
